Experimental findings from paper PMC6812009, “Covalent Aurora A regulation by the metabolic integrator coenzyme A” (Redox Biology, 2019) are described below.

Broadly, the inhibition is the percentage by which the read-out fell short of the control.

Holding throughout (experiment): Kinase profiling screen (radioactive filter-binding assay)
What all share (assay type): biochemical

The target in one assay is RIPK2 (Homo sapiens, UniProt O43353). The note with it: 100 μM compound, 20 μM ATP; read-out: Kinase activity, % of activity in the absence of inhibitor. Put shortly:
(§1)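 Single-point in vitro screen: 100 μM final of CoA, dpCoA and ADP, run in duplicate against recombinant kinase with a model substrate and optimal ATP.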

Another assay addresses Src (Homo sapiens, UniProt P12931). As to conditions: for activity at 100 µM: 100 μM compound, 50 μM ATP, read-out: Kinase activity, % of activity in the absence of inhibitor. The procedure, abridged: as §1
In another assay the target is MARK1 (Homo sapiens, UniProt Q9P0L2). As to conditions: 100 μM compound, 20 μM ATP; read-out: Kinase activity, % of activity in the absence of inhibitor. The procedure, abridged: as §1
Another assay addresses T1, EPH-B2 (Homo sapiens, UniProt P29323).
T1 sequence (P29323 19-1055): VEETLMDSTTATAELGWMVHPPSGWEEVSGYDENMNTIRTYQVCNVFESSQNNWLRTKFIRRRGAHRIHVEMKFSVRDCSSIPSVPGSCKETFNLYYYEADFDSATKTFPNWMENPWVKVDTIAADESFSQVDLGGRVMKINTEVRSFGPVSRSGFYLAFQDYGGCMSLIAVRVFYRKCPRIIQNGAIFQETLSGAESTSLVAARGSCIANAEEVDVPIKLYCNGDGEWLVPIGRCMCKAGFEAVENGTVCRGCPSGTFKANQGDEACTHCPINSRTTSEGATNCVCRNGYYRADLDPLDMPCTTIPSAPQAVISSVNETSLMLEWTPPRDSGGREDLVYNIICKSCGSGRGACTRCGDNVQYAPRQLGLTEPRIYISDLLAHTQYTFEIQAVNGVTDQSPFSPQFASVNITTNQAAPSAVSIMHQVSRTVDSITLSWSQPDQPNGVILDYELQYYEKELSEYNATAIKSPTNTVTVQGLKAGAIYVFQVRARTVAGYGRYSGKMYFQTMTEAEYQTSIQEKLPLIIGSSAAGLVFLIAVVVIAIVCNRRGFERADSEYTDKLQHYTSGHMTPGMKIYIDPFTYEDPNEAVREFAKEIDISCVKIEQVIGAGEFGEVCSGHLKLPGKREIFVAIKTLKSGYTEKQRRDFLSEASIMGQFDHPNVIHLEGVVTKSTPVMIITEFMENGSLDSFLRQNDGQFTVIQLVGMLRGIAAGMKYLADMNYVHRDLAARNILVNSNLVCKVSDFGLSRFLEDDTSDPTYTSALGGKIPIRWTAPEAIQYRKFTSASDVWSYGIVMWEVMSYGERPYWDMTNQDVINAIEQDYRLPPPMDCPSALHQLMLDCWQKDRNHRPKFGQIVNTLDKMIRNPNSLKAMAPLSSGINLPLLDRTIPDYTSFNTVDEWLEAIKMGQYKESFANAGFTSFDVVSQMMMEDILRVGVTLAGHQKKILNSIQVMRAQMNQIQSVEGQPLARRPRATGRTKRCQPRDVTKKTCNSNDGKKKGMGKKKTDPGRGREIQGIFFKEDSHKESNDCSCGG
The note with it: 100 μM compound, 20 μM ATP; read-out: Kinase activity, % of activity in the absence of inhibitor. Put shortly: as §1

Another assay has as its target HIPK2 (Homo sapiens, UniProt Q9H2X6). The note with it: 100 μM compound, 5 μM ATP; read-out: Kinase activity, % of activity in the absence of inhibitor. The procedure, abridged:
as §1

A further assay deals with MARK3 (Homo sapiens, UniProt P27448). The note with it: 100 μM compound, 5 μM ATP; read-out: Kinase activity, % of activity in the absence of inhibitor. The procedure, abridged:
as §1

In another assay the target is JNK1 (Homo sapiens, UniProt P45983). As to conditions: 100 μM compound, 20 μM ATP; read-out: Kinase activity, % of activity in the absence of inhibitor. Put shortly:
as §1

A further assay addresses PAK4 (Homo sapiens, UniProt O96013). As to conditions: 100 μM compound, 5 μM ATP; read-out: Kinase activity, % of activity in the absence of inhibitor. Put shortly: as §1
The target in another assay is MSPK1 (Homo sapiens, UniProt O75716). The note with it: 100 μM compound, 50 μM ATP; read-out: Kinase activity, % of activity in the absence of inhibitor. The procedure, abridged: as §1
The target in the next assay is T2, MST2 (Homo sapiens, UniProt Q13188).
T2 sequence (Q13188 1-491): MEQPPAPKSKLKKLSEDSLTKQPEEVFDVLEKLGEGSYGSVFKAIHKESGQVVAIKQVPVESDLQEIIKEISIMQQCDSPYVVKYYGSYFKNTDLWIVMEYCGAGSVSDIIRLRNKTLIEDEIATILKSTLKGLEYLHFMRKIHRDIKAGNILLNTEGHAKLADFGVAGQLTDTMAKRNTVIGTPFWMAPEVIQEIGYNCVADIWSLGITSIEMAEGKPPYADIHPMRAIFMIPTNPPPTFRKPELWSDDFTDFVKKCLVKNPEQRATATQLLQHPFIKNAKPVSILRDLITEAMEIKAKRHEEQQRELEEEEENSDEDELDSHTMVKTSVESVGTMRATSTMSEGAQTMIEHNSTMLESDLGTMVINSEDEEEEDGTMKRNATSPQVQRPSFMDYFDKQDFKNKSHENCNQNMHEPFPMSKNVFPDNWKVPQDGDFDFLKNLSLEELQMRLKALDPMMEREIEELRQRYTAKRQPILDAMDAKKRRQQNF
As to conditions: 100 μM compound, 20 μM ATP; read-out: Kinase activity, % of activity in the absence of inhibitor. The procedure, abridged:
as §1

Another assay concerns the target PHKγ1 (Homo sapiens, UniProt Q16816). As to conditions: 100 μM compound, 50 μM ATP; read-out: Kinase activity, % of activity in the absence of inhibitor. The procedure, abridged: as §1

Sequence of MARK3 (P27448 whole entry): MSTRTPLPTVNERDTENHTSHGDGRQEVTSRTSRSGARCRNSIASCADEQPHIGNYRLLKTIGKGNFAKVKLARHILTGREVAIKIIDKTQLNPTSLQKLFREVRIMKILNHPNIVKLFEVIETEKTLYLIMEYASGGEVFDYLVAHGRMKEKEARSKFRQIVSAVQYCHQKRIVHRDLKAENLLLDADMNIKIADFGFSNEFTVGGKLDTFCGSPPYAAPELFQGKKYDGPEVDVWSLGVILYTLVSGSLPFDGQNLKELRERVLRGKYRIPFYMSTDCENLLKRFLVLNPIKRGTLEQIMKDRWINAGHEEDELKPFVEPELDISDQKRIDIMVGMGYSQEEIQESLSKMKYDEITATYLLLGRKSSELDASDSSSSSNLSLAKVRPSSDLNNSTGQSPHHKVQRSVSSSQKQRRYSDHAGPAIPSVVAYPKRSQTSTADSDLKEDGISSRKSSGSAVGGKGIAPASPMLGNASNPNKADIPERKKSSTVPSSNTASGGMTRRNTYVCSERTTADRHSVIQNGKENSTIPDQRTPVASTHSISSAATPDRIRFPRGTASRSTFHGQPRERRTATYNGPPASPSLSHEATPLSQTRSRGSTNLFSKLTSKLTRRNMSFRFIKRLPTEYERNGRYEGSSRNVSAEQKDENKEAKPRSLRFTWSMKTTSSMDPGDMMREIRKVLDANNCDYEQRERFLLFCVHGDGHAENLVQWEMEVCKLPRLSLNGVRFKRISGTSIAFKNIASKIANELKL
Sequence of JNK1 (P45983 whole entry): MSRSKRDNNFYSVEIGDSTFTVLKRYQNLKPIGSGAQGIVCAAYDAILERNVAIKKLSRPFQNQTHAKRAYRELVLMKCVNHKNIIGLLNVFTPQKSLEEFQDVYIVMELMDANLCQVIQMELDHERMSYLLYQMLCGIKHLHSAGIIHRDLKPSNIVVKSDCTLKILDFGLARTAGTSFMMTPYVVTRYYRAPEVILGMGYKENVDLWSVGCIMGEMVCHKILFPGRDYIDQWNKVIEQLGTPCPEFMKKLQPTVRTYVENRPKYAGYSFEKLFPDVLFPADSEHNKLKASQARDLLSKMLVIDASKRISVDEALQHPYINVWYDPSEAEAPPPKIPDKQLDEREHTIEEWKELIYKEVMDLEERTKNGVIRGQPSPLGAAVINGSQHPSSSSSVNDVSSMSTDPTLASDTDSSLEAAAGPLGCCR
Sequence of PHKγ1 (Q16816 whole entry): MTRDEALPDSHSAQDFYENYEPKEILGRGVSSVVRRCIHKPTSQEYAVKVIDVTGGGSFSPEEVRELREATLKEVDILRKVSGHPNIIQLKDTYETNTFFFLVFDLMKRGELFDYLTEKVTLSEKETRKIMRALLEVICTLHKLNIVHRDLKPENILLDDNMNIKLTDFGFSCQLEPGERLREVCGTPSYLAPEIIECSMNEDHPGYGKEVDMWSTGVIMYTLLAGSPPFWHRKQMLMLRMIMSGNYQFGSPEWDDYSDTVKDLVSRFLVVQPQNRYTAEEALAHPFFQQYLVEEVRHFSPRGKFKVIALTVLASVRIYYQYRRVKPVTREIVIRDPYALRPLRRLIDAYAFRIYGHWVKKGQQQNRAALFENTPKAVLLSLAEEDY
Sequence of HIPK2 (Q9H2X6 whole entry): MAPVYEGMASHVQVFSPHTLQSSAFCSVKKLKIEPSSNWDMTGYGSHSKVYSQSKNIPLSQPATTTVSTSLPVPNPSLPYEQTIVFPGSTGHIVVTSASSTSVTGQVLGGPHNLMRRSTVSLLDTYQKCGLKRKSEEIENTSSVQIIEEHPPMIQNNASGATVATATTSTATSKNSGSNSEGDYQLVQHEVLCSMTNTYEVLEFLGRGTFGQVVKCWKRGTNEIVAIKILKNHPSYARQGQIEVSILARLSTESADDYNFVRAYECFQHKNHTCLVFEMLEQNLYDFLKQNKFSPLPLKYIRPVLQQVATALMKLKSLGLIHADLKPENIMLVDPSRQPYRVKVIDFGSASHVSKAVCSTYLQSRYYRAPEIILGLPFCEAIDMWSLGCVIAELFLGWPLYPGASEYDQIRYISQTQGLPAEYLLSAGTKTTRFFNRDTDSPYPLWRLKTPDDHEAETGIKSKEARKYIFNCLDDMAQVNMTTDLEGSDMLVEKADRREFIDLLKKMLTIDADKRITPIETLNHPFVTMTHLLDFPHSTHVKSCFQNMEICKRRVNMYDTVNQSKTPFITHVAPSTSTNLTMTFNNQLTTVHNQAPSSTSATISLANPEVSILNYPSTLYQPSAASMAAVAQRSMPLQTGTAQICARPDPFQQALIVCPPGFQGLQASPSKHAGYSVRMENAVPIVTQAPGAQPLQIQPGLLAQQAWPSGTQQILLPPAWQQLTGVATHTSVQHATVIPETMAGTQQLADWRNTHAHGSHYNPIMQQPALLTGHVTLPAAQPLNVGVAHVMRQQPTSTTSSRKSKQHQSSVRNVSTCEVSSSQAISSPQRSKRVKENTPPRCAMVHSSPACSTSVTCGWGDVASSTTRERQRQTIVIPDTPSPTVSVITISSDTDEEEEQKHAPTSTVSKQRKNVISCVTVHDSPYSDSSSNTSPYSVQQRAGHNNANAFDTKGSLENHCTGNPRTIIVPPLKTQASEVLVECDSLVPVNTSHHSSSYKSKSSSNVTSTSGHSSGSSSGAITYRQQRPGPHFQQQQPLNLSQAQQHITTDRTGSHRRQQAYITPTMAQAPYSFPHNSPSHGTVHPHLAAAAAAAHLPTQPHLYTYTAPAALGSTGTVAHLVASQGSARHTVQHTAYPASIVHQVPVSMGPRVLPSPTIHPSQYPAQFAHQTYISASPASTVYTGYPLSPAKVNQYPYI
Sequence of MSPK1 (O75716 whole entry): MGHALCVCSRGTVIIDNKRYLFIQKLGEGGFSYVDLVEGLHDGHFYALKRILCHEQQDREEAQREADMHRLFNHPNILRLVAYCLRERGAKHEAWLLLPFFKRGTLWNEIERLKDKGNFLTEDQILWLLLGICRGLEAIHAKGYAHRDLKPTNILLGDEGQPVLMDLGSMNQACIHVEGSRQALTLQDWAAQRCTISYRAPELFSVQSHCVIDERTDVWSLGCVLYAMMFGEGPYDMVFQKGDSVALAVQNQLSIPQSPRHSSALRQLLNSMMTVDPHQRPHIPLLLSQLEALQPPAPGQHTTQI
Sequence of RIPK2 (O43353 whole entry): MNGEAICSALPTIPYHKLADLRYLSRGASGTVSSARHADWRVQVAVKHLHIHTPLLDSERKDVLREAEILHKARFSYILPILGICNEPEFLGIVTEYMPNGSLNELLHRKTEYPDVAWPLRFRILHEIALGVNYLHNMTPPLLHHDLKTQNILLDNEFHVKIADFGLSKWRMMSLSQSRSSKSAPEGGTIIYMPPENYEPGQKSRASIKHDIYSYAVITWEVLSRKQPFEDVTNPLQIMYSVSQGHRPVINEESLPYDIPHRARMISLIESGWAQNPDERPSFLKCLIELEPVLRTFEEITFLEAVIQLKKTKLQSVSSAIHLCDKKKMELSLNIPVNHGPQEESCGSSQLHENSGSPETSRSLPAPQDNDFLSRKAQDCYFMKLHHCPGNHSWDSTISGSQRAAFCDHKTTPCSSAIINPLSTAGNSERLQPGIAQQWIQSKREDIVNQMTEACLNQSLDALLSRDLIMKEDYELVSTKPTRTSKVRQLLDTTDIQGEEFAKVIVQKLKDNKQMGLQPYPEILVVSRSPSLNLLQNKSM
Sequence of MARK1 (Q9P0L2 whole entry): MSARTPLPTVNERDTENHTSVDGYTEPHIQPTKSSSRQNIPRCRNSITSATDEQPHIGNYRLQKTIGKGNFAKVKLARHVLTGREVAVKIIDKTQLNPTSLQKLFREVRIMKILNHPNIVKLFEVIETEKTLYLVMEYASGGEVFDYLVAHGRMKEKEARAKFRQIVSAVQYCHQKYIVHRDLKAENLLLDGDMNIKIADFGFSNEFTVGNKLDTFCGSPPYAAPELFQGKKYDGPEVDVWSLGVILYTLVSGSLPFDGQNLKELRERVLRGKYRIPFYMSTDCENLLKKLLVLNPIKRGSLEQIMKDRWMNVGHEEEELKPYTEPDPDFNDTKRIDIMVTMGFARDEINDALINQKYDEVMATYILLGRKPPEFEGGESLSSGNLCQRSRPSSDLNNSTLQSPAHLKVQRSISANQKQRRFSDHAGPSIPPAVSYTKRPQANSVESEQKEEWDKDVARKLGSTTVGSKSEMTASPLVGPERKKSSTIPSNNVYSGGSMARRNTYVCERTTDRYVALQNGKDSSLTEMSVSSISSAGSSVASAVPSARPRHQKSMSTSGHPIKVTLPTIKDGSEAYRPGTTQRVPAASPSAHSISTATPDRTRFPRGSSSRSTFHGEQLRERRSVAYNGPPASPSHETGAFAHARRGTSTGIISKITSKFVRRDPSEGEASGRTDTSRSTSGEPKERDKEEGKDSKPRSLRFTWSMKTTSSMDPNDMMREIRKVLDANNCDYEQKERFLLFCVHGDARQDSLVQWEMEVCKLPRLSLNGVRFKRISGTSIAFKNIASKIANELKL
Sequence of Src (P12931 whole entry): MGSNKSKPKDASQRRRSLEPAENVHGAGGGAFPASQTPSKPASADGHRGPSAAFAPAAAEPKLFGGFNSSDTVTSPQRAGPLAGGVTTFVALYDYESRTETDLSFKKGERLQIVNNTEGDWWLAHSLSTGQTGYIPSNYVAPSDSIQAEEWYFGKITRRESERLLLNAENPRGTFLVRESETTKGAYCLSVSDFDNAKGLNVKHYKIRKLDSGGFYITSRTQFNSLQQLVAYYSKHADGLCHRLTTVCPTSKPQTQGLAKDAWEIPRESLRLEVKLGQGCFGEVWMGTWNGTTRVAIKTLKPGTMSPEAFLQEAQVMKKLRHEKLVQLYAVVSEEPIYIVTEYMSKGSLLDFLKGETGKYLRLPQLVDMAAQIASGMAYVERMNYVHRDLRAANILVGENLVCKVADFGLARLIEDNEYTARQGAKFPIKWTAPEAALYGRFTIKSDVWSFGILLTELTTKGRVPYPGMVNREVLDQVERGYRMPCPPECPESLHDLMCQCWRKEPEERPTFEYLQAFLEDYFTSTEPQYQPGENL

Regarding `CC(C)(COP(=O)(O)OP(=O)(O)OCC1OC(n2cnc3c(N)ncnc32)C(O)C1O)C(O)C(=O)NCCC(=O)NCCS` (centres unmarked) [dpCoA, dephospho-CoA], the activity at 100 µM was determined as 88.4% at RIPK2; 8.9% at Src; 68% at MARK1; 91.1% at EPH-B2; 73.4% on HIPK2; 46.2% at MARK3. The activity at 100 µM at JNK1 was 82.4%; at PAK4 it was 75.9%; at MSPK1, 102%; at MST2, 72.5%; on PHKγ1, 90.9%.

In the case of `CC(C)(COP(=O)(O)OP(=O)(O)OC[C@H]1O[C@@H](n2cnc3c(N)ncnc32)[C@H](O)[C@@H]1OP(=O)(O)O)[C@@H](O)C(=O)NCCC(=O)NCCS` [CoA, Coenzyme A], the activity at 100 µM was determined as 131% at RIPK2; 43.8% on Src; 95.3% at MARK1; 117% at EPH-B2; 153% on HIPK2; 88.9% on MARK3. Further, the activity at 100 µM on JNK1 was determined as 85.4%; on PAK4, 69.9%; at MSPK1 it was 102%; on MST2 it was 119%; on PHKγ1, 105%. Besides, the inhibition at 100 µM on Src (100 μM CoA, kinase profiling screen) was no more than 50%. At Src (kinase profiling, 100 μM), the “SRC inhibition (in words)” value is reported as “modestly inhibited”.

On to `Nc1ncnc2c1ncn2C1OC(COP(=O)(O)OP(=O)(O)O)C(O)C1O` (centres unmarked) [ADP], for which the activity at 100 µM on RIPK2 is 46%; at Src, 31.8%; on MARK1, 28.1%; at EPH-B2, 14.3%; on HIPK2 it was 16.5%; at MARK3, 14.8%. Besides, the activity at 100 µM on JNK1 was found to be 53.9%; at PAK4 it was 73.8%; on MSPK1, 94.1%; at MST2, 40.5%; on PHKγ1, 75.6%.
